Assays:
Melanocortin receptor 4 = Melanocortin receptor 4 (Homo sapiens, UniProt P32245); type: cell membranes, HEK293, Membrane; note: in other assays of this panel Not Active means under 50% inhibition at 10 µM
[1] = target: T1, Nitric oxide synthase, inducible (Mus musculus, UniProt P29477); set-up: species or system Escherichia coli;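 note: inhibition of iNOS enzyme activity measured with L-arginine as substrate; in other assays of this panel Not Active means under 50% inhibition at 10 µM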
T1 sequence (P29477 whole entry): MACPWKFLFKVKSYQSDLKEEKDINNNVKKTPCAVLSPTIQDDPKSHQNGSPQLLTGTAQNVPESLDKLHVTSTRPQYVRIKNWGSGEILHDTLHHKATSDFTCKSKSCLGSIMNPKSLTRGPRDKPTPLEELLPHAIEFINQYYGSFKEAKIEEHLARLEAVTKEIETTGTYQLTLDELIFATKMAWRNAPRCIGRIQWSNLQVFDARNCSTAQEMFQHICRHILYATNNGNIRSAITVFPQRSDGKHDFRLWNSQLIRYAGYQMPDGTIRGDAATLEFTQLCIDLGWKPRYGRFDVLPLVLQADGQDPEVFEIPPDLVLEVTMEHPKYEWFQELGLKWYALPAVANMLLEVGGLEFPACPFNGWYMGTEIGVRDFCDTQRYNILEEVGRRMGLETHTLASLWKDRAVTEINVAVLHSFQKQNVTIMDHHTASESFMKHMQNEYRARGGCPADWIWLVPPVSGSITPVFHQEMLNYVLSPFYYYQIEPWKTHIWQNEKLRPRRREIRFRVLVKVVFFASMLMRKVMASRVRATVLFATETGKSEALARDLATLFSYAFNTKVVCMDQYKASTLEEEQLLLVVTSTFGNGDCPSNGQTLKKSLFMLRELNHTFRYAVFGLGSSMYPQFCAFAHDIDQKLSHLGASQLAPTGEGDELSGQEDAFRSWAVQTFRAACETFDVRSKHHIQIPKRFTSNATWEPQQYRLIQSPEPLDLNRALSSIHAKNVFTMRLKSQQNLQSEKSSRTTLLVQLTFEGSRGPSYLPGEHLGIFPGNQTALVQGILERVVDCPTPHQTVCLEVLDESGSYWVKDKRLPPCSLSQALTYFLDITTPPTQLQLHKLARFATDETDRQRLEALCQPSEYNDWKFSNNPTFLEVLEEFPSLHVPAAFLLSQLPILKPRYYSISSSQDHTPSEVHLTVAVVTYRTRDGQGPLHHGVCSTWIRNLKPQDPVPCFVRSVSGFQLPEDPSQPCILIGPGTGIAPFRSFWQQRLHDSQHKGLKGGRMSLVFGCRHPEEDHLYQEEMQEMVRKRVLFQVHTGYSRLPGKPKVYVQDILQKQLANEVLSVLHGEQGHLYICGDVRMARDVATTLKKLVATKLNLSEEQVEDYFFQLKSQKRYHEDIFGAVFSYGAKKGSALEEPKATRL

Thromboxane-A synthase = target: T2, Thromboxane-A synthase (Homo sapiens, UniProt P24557); experiment: biochemical; type: tissue-based, Platelet;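 note: enzyme inhibition assay with PGH2 supplied as substrate; in other assays of this panel Not Active means under 50% inhibition at 10 µM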
T2 sequence (P24557 whole entry): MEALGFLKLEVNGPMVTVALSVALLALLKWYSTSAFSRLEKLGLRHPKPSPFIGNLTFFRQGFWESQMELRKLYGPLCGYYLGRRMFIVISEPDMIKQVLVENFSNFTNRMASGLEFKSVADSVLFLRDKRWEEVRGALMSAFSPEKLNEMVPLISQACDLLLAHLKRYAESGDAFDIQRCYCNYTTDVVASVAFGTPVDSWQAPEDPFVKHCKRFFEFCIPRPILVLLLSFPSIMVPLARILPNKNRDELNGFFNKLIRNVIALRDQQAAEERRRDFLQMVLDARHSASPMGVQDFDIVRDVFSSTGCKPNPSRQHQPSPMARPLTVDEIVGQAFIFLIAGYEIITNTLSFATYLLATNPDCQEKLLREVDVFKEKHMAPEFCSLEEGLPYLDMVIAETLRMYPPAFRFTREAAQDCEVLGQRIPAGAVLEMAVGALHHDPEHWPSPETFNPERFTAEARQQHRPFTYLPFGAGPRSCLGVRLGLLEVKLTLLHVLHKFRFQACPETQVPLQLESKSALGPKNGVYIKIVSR

[2] = target: Sodium-dependent dopamine transporter (Homo sapiens, UniProt Q01959); experiment: DRUGMATRIX: Dopamine Transporter radioligand binding (ligand: [125I] RTI-55); type: cell membranes, CHO-K1, Membrane; details: Not Active = under 50% inhibition at 10 µM; for Ki: read-out: Ki
Sodium-dependent dopamine transporter, sequence (Q01959 whole entry): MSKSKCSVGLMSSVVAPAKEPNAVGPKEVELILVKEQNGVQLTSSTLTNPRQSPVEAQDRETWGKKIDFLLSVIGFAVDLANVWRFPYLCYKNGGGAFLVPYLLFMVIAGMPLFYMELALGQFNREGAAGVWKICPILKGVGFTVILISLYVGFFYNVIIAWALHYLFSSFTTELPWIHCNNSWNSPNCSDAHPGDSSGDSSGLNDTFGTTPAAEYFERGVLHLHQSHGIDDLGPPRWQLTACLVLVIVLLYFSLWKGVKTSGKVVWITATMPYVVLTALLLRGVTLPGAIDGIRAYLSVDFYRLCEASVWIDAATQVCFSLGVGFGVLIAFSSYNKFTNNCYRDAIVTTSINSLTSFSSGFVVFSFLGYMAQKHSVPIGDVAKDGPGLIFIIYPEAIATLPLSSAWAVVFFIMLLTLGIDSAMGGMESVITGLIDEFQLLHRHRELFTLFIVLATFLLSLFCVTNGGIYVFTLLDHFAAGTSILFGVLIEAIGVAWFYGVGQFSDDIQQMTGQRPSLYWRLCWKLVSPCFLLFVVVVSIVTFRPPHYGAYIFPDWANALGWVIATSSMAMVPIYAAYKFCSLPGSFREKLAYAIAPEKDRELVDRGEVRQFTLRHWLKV

[3] = target: Epidermal growth factor receptor (Homo sapiens, UniProt P00533); experiment: DRUGMATRIX: Protein Tyrosine Kinase, EGF Receptor enzyme inhibition (substrate: Poly(Glu:Tyr)); type: cell-based, Insect cells; details: Not Active = under 50% inhibition at 10 µM
Epidermal growth factor receptor, sequence (P00533 whole entry): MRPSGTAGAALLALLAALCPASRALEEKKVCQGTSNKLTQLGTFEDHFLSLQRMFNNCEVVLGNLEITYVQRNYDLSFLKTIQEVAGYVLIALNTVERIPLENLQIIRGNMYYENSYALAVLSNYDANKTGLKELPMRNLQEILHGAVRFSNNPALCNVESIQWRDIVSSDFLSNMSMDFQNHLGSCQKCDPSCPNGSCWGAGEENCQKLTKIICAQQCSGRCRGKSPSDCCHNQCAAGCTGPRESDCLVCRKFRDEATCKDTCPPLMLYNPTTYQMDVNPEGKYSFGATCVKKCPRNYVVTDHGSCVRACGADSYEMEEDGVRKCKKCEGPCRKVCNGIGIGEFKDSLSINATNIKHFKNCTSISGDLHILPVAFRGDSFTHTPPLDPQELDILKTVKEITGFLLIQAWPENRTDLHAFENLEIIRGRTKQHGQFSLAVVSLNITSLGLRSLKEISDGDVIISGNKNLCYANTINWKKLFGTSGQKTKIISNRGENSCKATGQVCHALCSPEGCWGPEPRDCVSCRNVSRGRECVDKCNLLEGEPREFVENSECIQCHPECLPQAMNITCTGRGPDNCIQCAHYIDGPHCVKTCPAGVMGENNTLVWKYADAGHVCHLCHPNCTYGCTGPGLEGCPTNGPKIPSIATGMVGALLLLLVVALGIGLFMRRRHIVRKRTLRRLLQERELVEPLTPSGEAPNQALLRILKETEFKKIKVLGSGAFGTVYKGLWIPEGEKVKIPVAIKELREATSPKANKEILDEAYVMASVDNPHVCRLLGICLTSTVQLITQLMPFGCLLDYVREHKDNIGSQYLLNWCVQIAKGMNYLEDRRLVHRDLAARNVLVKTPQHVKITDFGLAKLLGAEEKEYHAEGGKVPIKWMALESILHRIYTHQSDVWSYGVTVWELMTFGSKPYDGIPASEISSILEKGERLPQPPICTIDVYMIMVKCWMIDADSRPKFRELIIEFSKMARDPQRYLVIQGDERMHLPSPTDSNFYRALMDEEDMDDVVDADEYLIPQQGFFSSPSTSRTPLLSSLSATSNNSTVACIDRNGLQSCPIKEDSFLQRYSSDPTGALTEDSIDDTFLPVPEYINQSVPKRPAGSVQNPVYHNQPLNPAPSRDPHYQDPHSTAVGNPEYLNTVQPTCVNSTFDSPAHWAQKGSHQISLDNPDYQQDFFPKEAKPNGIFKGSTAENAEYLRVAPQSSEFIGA

Cytochrome P450 2D6 = Cytochrome P450 2D6 (Homo sapiens, UniProt P10635); details: bti-tn-5b1-4; note: in other assays of this panel Not Active means under 50% inhibition at 10 µM
Cytochrome P450 2D6, sequence (P10635 whole entry): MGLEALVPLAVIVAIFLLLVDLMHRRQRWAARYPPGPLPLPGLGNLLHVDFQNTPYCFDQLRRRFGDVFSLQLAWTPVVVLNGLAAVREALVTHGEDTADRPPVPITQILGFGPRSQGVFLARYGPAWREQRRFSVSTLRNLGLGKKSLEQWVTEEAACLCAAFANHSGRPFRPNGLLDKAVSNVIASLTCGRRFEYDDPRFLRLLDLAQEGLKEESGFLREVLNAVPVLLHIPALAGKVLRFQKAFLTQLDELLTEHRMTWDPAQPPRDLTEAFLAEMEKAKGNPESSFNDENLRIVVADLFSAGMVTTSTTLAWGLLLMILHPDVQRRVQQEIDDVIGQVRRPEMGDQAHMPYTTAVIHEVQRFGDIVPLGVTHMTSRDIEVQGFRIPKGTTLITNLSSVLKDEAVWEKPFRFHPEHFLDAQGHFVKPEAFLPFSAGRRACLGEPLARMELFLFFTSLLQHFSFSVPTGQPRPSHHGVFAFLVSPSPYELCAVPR

Melanocortin receptor 4, sequence (P32245 whole entry): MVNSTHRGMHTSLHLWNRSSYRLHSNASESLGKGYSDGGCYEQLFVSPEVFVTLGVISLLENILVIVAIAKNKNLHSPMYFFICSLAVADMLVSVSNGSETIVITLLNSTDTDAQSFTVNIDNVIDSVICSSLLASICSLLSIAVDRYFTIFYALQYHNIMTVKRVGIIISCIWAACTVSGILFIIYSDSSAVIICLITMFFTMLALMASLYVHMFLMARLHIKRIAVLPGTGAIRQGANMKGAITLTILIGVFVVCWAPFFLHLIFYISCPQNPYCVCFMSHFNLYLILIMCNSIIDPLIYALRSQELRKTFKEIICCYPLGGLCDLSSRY

| Structure (SMILES) | IC50 (Melanocortin receptor 4; read-out: IC50) [µM] | Ki (Melanocortin receptor 4; read-out: Ki) [µM] | IC50 [1] | IC50 (Thromboxane-A synthase; platelet) | IC50 ([2]; read-out: IC50) [µM] | Ki [2] [µM] | IC50 ([3]; insect cells) | IC50 (Cytochrome P450 2D6) | Ki (Cytochrome P450 2D6) | IC50 (Melanocortin receptor 4; hek293) | IC50 ([2]; cho-k1) | IC50 (Thromboxane-A synthase; read-out: IC50) [µM] | IC50 ([3]; read-out: IC50) [µM] |
| --- | --- | --- | --- | --- | --- | --- | --- | --- | --- | --- | --- | --- | --- |
| Cc1c(C)c2c(c(C)c1O)CCC(C)(CN1CCN(c3cc(N4CCCC4)nc(N4CCCC4)n3)CC1)O2 (stereo unspecified) | 58 | 55.8 | Not Active | Not Active | 13.4 | 10.6 | Not Active |  |  |  |  |  |  |
| COc1ccc(CCN(C)CCCC(C#N)(c2ccc(OC)c(OC)c2)C(C)C)cc1OC (stereo unspecified) |  |  | Not Active | Not Active |  |  | Not Active | Not Active | Not Active | Not Active | Not Active |  |  |
| CC(C)Cc1ccc([C@@H](C)C(=O)O)cc1 [(R)-IBUPROPHEN] |  |  | Not Active | Not Active |  |  | Not Active | Not Active | Not Active | Not Active | Not Active |  |  |
| CN(C)CCOC(c1ccccc1)c1ccccc1 [DIPHENHYDRAMINE] |  |  | Not Active | Not Active |  |  | Not Active |  |  | Not Active | Not Active |  |  |
| Clc1ccc(COC(Cn2ccnc2)c2ccc(Cl)cc2Cl)cc1 (stereo unspecified) [ECONAZOLE] |  |  | Not Active |  |  |  |  |  |  | Not Active |  | 0.029 | 32.4 |
| CCN(CC)CCOc1ccc(/C(=C(/Cl)c2ccccc2)c2ccccc2)cc1 [ENCLOMIPHENE] |  |  | Not Active | Not Active |  |  |  |  |  | Not Active |  |  | 1.05 |
| Fc1ccc(C(c2ccc(F)cc2)N2CCN(C/C=C/c3ccccc3)CC2)cc1 [FLUNARIZINE] |  |  | Not Active | Not Active | 0.584 | 0.464 | Not Active | Not Active | Not Active | Not Active |  |  |  |
| CNCCC(Oc1ccc(C(F)(F)F)cc1)c1ccccc1 (stereo unspecified) [FLUOXETINE] |  |  | Not Active | Not Active |  |  | Not Active |  |  | Not Active | Not Active |  |  |
| Cc1ccc(NC(=O)c2ccc(CN3CCN(C)CC3)cc2)cc1Nc1nccc(-c2cccnc2)n1 [IMATINIB] |  |  | Not Active |  |  |  |  | Not Active | Not Active | Not Active | Not Active | 0.198 |  |
| CC(C)Oc1ccc2c(=O)c(-c3ccccc3)coc2c1 [IPRIFLAVONE] |  |  | Not Active | Not Active |  |  | Not Active | Not Active | Not Active | Not Active | Not Active |  |  |
| CC(C)NCC(O)c1ccc(O)c(O)c1 (stereo unspecified) [ISOPROTERENOL] |  |  | Not Active | Not Active |  |  | Not Active | Not Active | Not Active | Not Active | Not Active |  |  |
| CNC1(c2ccccc2Cl)CCCCC1=O (stereo unspecified) [KETAMINE] |  |  | Not Active | Not Active |  |  | Not Active | Not Active | Not Active | Not Active | Not Active |  |  |
| N#Cc1ccc(C(c2ccc(C#N)cc2)n2cncn2)cc1 [LETROZOLE] |  |  | Not Active | Not Active |  |  | Not Active | Not Active | Not Active | Not Active | Not Active |  |  |
| CCN1CCC[C@H]1CNC(=O)c1cc(S(N)(=O)=O)ccc1OC [LEVOSULPIRIDE] |  |  | Not Active | Not Active |  |  | Not Active | Not Active | Not Active | Not Active | Not Active |  |  |
| CCN(CC)CC(=O)Nc1c(C)cccc1C [LIDOCAINE] |  |  | Not Active | Not Active |  |  | Not Active |  |  | Not Active | Not Active |  |  |
| O=C1Nc2ccc(Cl)cc2C(c2ccccc2Cl)=NC1O (stereo unspecified) [LORAZEPAM] |  |  | Not Active | Not Active |  |  | Not Active | Not Active | Not Active | Not Active | Not Active |  |  |
| CO[C@@H]1[C@@H](OC)[C@H](C)[C@@](O)(CC(=O)O)O[C@H]1[C@H](C)[C@H]1O[C@@]2(CC[C@@](C)([C@H]3CC[C@@](C)([C@@H]4O[C@@H]([C@H]5O[C@](C)(O)[C@H](C)C[C@@H]5C)C[C@@H]4O[C@@H]4C[C@H](OC)[C@@H](OC)[C@H](C)O4)O3)O2)C[C@H](O)[C@H]1C [MADURAMICIN ACID] |  |  | Not Active | Not Active |  |  | Not Active |  |  | Not Active | Not Active |  |  |
| COc1c2occc2cc2ccc(=O)oc12 [METHOXSALEN] |  |  | Not Active | Not Active |  |  | Not Active | Not Active | Not Active | Not Active | Not Active |  |  |
| C[C@H]1C[C@@H]2[C@H]([C@@H](O)C[C@@]3(C)[C@H]2CC[C@]3(O)C(=O)CO)[C@@]2(C)C=CC(=O)C=C12 [METHYLPREDNISOLONE] |  |  | Not Active | Not Active |  |  | Not Active |  |  | Not Active | Not Active |  |  |
| Cc1cccc(C)c1OCC(C)N (stereo unspecified) [MEXILETINE] |  |  | Not Active | Not Active |  |  | Not Active | Not Active | Not Active | Not Active | Not Active |  |  |
| Nc1cc(N2CCCCC2)nc(N)[n+]1[O-] [MINOXIDIL] |  |  | Not Active | Not Active |  |  | Not Active | Not Active | Not Active | Not Active | Not Active |  |  |
| CO[C@H]1/C=C/O[C@@]2(C)Oc3c(C)c(O)c4c(O)c(c(/C=N/N5CCN(C6CCCC6)CC5)c(O)c4c3C2=O)NC(=O)/C(C)=C\C=C\[C@H](C)[C@H](O)[C@@H](C)[C@@H](O)[C@@H](C)[C@H](OC(C)=O)[C@@H]1C [RIFAPENTINE] |  |  | Not Active | Not Active |  |  | Not Active | Not Active | Not Active | Not Active | Not Active |  |  |
| CCCCOc1cc(CC2CNC(=O)N2)ccc1OC (stereo unspecified) [RO-201724] |  |  | Not Active | Not Active |  |  | Not Active | Not Active | Not Active | Not Active | Not Active |  |  |
| CN[C@H]1CC[C@@H](c2ccc(Cl)c(Cl)c2)c2ccccc21 [SERTRALINE] |  |  | Not Active | Not Active |  |  | Not Active | Not Active | Not Active | Not Active |  |  |  |
| CN(C/C=C/C#CC(C)(C)C)Cc1cccc2ccccc12 [TERBINAFINE] |  |  | Not Active | Not Active |  |  | Not Active |  |  | Not Active | Not Active |  |  |
| CCCCNc1ccc(C(=O)OCCN(C)C)cc1 [TETRACAINE] |  |  | Not Active | Not Active |  |  | Not Active |  |  | Not Active | Not Active |  |  |
| Clc1ccccc1CN1CCc2sccc2C1 [TICLOPIDINE] |  |  | Not Active | Not Active |  |  | Not Active |  |  | Not Active | Not Active |  |  |
